{"source": "patent US20220151979A1", "about": "“COMPOSITION FOR PREVENTION OR TREATMENT OF CARDIOVASCULAR AND METABOLIC DISEASE COMPRISING NORANHYDROICARITIN” (SEOUL NATIONAL UNIVERSITY HOSPITAL, priority 2019, published 2022)", "key": {"PCSK9": {"test_system": "PCSK9", "assay": "Immunoblot of PCSK9 in HepG2 cells", "format": "cell-based, human", "details": "HepG2 cells, 5, 10, 20 μM", "description": "(§1) In order to confirm the effect of noranhydroicaritin to inhibit PCSK9 expression and increase LDLR expression, immunoblotting targeting PCSK9 and LDLR was performed and the expression levels were compared. β-Actin was used as a control.\n(§2) In a 100 mm Petri dish, 1×10^6 HepG2 cells were aliquoted and treated with noranhydroicaritin at various concentrations (5 μM, 10 μM, and 20 μM), and then the cells were removed from the cell-culture dish and homogenized using a protein extraction solution (NP40, ELPIS BIOTECH, Korea) containing a protease inhibitor cocktail (Roche).\n(§3) In order to prepare the total protein, the cells were extracted in RIPA lysis buffer (50 mM Tris-HCl (pH 7.4), 150 mM NaCl, 5 mM EDTA, 5 mM EGTA, 5 mM sodium fluoride, 2 mM sodium orthovanadate, 1% NP-40, 0.1% sodium dodecyl sulfate [SDS], 1 mM phenylmethylsulfonyl fluoride [PMSF], and protein inhibitor cocktail [Roche Diagnostics, Heidelberg, Germany]). The protein concentration in the lysate was measured using the Bio-Rad dye-binding micro assay. For immunoblotting, 30 μg of cell lysate was isolated via SDS-polyacrylamide gel electrophoresis (PAGE). The proteins were transferred onto the Hybond-ECL nitrocellulose membrane (Amersham Biosciences, Buckinghamshire, UK). […] HRP-conjugated secondary antibodies were detected using an ECL detection reagent."}, "HEK293T cells": {"test_system": "HEK293T cells", "assay": "MTT cell viability of HEK293T cells", "format": "cell-based, human", "details": "20 μM, 24 hours, relative to DMSO negative control", "description": "In order to confirm the toxicity of noranhydroicaritin to cells, HEK293T (human embryonic kidneys) were treated with noranhydroicaritin at various concentrations, and the cell viability at each concentration of noranhydroicaritin was calculated through the MTT screening method.\nSpecifically, HEK293T cells were suspended in DMEM (Welgene Inc.) medium containing 10% fetal bovine serum at a concentration of 1×10^5 cells/mL, and 100 μL thereof was inoculated into each well of a 96-well plate. After 4 hours, the HEK293T cells in the well plate were treated with noranhydroicaritin samples at concentrations of 2.5 μM, 5 μM, 10 μM, and 20 μM. After incubation for 24 hours, 5 μL of MTT (5 mg/mL) was added to the well plate, and the cells were further incubated for 4 hours. Thereafter, the medium was removed, 100 μL of DMSO was added to the well plate, the reaction was conducted, and then the absorbance was measured at 570 nm. As a control, cholesterol synthesis inhibitors atorvastatin (Ato) and rosuvastatin (Ros) were used. The cell viability was calculated according to the mathematical formula as a value relative to 100% of the value for the negative control treated only with DMSO. The results are illustrated in FIG. 2."}, "MCP-1": {"test_system": "MCP-1", "assay": "Immunofluorescence of MCP-1 in carotid artery, mouse arteriosclerosis model", "format": "in vivo", "details": "10 μg/g/day", "description": "Carotid artery ligation was performed one week after injection of AAV-PCSK9 Virus (1×10^11 IFU/mL) and noranhydroicaritin (10 μg/g/day). After 3 weeks of ligation, it was confirmed whether the atherosclerosis model was completed, and gross plaque imaging and immunofluorescence were performed to confirm the arteriosclerosis inhibitory effect of noranhydroicaritin.\nFurthermore, the arteriosclerosis inhibitory effect of noranhydroicaritin was confirmed using immunofluorescence. Specifically, a mouse carotid artery was obtained and fixed in 4% PFA for one day, and then prepared into a block. As the inflammatory response in blood vessels progresses, the arteriosclerosis worsens, and thus the marker […] of macrophages causing arteriosclerotic inflammatory response and TNF-α, IL-1B, and MCP-1, which are pro-inflammatory cytokines secreted when the inflammatory response occurs, were stained. Staining was performed using the antibody for each of CAP1(1:200), PCSK9(1:100), F4/80(1:100), TNF-α(1:100), […], and MCP-1(1:100), then imaging was performed using a confocal microscope, and […] was evaluated."}, "LDLR": {"test_system": "LDLR", "assay": "Immunoblot of LDLR in HepG2 cells", "format": "cell-based, human", "details": "HepG2 cells, 5, 10, 20 μM", "description": "as §1, §2, §3"}}}
{"smiles": "CC(C)=CCc1c(O)cc(O)c2c(=O)c(O)c(-c3ccc(O)cc3)oc12", "note": "[Noranhydroicaritin, noranhydroicaritin]", "values": [{"measurement": "PCSK9 expression (immunoblot)", "setting": "PCSK9", "result": "decreased in a concentration-dependent manner"}, {"measurement": "cell viability", "setting": "HEK293T cells", "result": "≥ 90", "unit": "%"}, {"measurement": "expression of MCP-1 (immunofluorescence)", "setting": "MCP-1", "result": "decreased"}, {"measurement": "LDLR expression (immunoblot)", "setting": "LDLR", "result": "increased in a concentration-dependent manner"}]}
